Source: US5990096A (priority 1992, dated 1999)

Legend:
[1] = Intratumour injection study: radioactivity remaining in normal skin; format: in vivo, Fisher 344 rat; conditions: injection into normal skin
Method: (§1) 1. These drugs were administrated by intratumor injection. (right frank)
At the same time, injection into normal skin (left frank) was carried out similarly.
(§2) Group A:H-5-FU 5 mg/kg+saline/0.3 ml (i.t.)
(§3) B:H-5-FU 5 mg/kg+HA 15 mg/kg/0.3 ml (s.c.)
(§4) 3H-FU without or with HA was injected as a single dose (0.3 ml) into the center of the tumor (on the right frank) with a 30 gause needle. At the same time, injection into normal skin (on the left frank) was carried out similarly.
(§5) The tumor and skin was then removed at different times (1 h,6 hr) for counting radioactivity of the remaining content in the tissue.

Fisher Bladder Carcinoma = test: Intratumour injection study: radioactivity remaining in tumor tissue; format: in vivo, Fisher 344 rat; conditions: intratumor injection
Method: as §1, §2, §3, §4, §5

[2] = in vivo

Compound | Radioactivity clearance from normal tissue (skin) [1] | Radioactivity retention in tumor tissue (Fisher Bladder Carcinoma) | Side effects [2]
O=c1[nH]cc(F)c(=O)[nH]1 [Formulation 3H-5FU, 5-Fluoracil] | immediately disappeared | immediately disappeared | 
O=C(O)Cc1ccccc1Nc1c(Cl)cccc1Cl [Oral diclofenac acid] |  |  | gastritis
